Results as given in patent US8981150B2 (priority 2009, dated 2015).

Assay: Solubility in water

SMILES | Solubility in water (% w/w)
CCCCC(OCC)C(=O)N(C)C (stereo not shown) [Product 5] | <0.05
CCCC(OCC)C(=O)N(C)C (stereo not shown) [Product 7] | <0.1
CCCCC(OC)C(=O)N(C)C (stereo not shown) [Product 4] | <0.05
CCCC(OC)C(=O)N(C)C (stereo not shown) [Product 6] | <0.1
